Results from US12098148B2, “Therapeutic compounds” (C4X Discovery Limited, priority 2018, dated 2024).

Legend:
[1] = tested on: NQO1 mRNA in BEAS-2B cells; assay: Beas2B NQO1 mRNA cell based assay; set-up: species or system human; conditions: Homo sapiens, BEAS-2B, 24 h, 24 h compound treatment, increase in NQO1 mRNA vs vehicle (0.1% DMSO), read-out: EC50
Procedure, shortened: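 Relative NQO1 transcript level derived by ΔΔCT with human β-actin as internal control, using direct-lysate one-step RT-qPCR. Cells were BEAS-2B, plated overnight then treated with compound for 24 h.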

[2] = target: human KEAP1 (N-term, residues 321-609) (Homo sapiens, UniProt Q14145); assay: biochemical;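 note: fluorescence polarization competition assay of Kelch domain binding to NRF2, 12-point 1:3 dilution series from 10 µM, read after 1 h at room temperature, floor 10 nM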
human KEAP1 (N-term, residues 321-609), sequence (Q14145 321-609): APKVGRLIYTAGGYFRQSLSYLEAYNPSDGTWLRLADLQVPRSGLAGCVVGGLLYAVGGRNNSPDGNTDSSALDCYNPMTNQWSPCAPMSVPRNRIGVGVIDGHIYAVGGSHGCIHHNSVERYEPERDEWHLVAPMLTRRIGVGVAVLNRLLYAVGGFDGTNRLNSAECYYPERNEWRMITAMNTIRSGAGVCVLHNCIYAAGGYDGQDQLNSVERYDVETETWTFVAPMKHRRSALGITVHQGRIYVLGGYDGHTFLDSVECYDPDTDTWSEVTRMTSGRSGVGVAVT

IC50 [2] [nM] | Structure (SMILES) | EC50 [1] [nM]
6.2 | C[C@]1(C(=O)O)CCCC[C@H]1C(=O)N1CCc2c(Cl)ccc(OCc3nnc4n3CCOC4)c2[C@H]1CN1CC2(CC2)CC1=O [Example 176, (1S,2R)-2-((S)-5-chloro-8-((5,6-dihydro-8H-[1,2,4]triazolo[3,4-c][1,4]oxazin-3-yl)methoxy)-1-((6-oxo-5-azaspiro [2.4]heptan-5-yl)methyl)-1,2,3,4-tetrahydroisoquinoline-2-carbonyl)-1-methylcyclohexane-1-carboxylic acid] | 2.8
8.2 | Cn1nnc2cc(COc3cccc4c3[C@@H](CN3C(=O)c5ccccc5C3=O)N(C(=O)[C@@H]3CCCC[C@@H]3C(=O)O)CC4)ccc21 [Example 8, (1S,2R)-2-((S)-1-((1,3-Dioxoisoindolin-2-yl)methyl)-8-((1-methyl-1H-benzo[d][1,2,3]triazol-5-yl)methoxy)-1,2,3,4-tetrahydroisoquinoline-2-carbonyl)cyclohexane-1-carboxylic acid] | 48
9.7 | Cn1cnc2ccc(COc3ccc(Cl)c4c3[C@@H](CN3CCCC3=O)N(C(=O)[C@@H]3CCCC[C@@H]3C(=O)O)CC4)nc21 [Example 99, (1S,2R)-2-((S)-5-chloro-8-((3-methyl-3H-imidazo [4,5-b]pyridin-5-yl)methoxy)-1-((2-oxopyrrolidin-1-yl)methyl)-1,2,3,4-tetrahydroisoquinoline-2-carbonyl) cyclohexane-1-carboxylic acid] | 520
5.9 | [2H][C@@H]1C[C@@H](C(=O)N2CCc3c(Cl)ccc(OCc4nnn(C)c4C(F)F)c3[C@H]2CN2CC3(CC3)CC2=O)[C@@](C)(C(=O)O)C[C@@H]1[2H] [Example 210, (1S,2R,4S,5R)-2-((S)-5-chloro-8-((5-(difluoromethyl)-1-methyl-1H-1,2,3-triazol-4-yl)methoxy)-1-((6-oxo-5-azaspiro[2.4]heptan-5-yl)methyl)-1,2,3,4-tetrahydroisoquinoline-2-carbonyl)-1-methylcyclohexane-1-carboxylic-4,5-d2 acid] | 0.24
7.7 | Cn1cc(COc2cccc3c2[C@@H](CN2C(=O)c4ccccc4C2=O)N(C(=O)[C@@H]2CCCC[C@@H]2C(=O)O)CC3)nn1 [Example 9, (1S,2R)-2-((S)-1-((1,3-dioxoisoindolin-2-yl)methyl)-8-((1-methyl-1H-1,2,3-triazol-4-yl)methoxy)-1,2,3,4-tetrahydroisoquinoline-2-carbonyl)cyclohexane-1-carboxylic acid] | 24
6.6 | Cn1ncc(COc2ccc(Cl)c3c2[C@@H](CN2CC4(CC4)CC2=O)N(C(=O)[C@@H]2CCCC[C@]2(C)C(=O)O)CC3)n1 [Example 206, (1S,2R)-2-((S)-5-chloro-8-((2-methyl-2H-1,2,3-triazol-4-yl)methoxy)-1-((6-oxo-5-azaspiro[2.4]heptan-5-yl)methyl)-1,2,3,4-tetrahydroisoquinoline-2-carbonyl)-1-methylcyclohexane-1-carboxylic acid] | 34
5.8 | Cn1nnc(COc2ccc(Cl)c3c2[C@@H](CN2CC4(CC4)CC2=O)N(C(=O)[C@@H]2CCCC[C@]2(C)C(=O)O)CC3)c1C(F)F [Example 123, (1S,2R)-2-((S)-5-chloro-8-((5-(difluoromethyl)-1-methyl-1H-1,2,3-triazol-4-yl)methoxy)-1-((6-oxo-5-azaspiro[2.4]heptan-5-yl)methyl)-1,2,3,4-tetrahydroisoquinoline-2-carbonyl)-1-methylcyclohexane-1-carboxylic acid] | 0.26
13 | O=C(O)[C@H]1CCCC[C@H]1C(=O)N1CCc2c(Cl)ccc(OCc3nccn3CC(F)F)c2[C@H]1CN1Cc2ccccc2C1=O [Example 52, (1S,2R)-2-((S)-5-chloro-8-((1-(2,2-difluoroethyl)-1H-imidazol-2-yl)methoxy)-1-((1-oxoisoindolin-2-yl)methyl)-1,2,3,4-tetrahydroisoquinoline-2-carbonyl)cyclohexane-1-carboxylic acid] | 140
5.5 | Cn1nnc(COc2ccc(Cl)c3c2[C@@H](CN2CCCC2=O)N(C(=O)[C@@H]2CCCC[C@]2(C)C(=O)O)CC3)c1C1CC1 [Example 129, (1S,2R)-2-((S)-5-chloro-8-((5-cyclopropyl-1-methyl-1H-1,2,3-triazol-4-yl)methoxy)-1-((2-oxopyrrolidin-1-yl)methyl)-1,2,3,4-tetrahydroisoquinoline-2-carbonyl)-1-methylcyclohexane-1-carboxylic acid] | 0.95
5.5 | Cn1cc(COc2ccc(Cl)c3c2[C@@H](CN2CCCC2=O)N(C(=O)[C@@H]2CCCC[C@@H]2C(=O)O)CC3)nn1 [Example 104, (1S,2R)-2-((S)-5-Chloro-8-((1-methyl-1H-1,2,3-triazol-4-yl)methoxy)-1-((2-oxopyrrolidin-1-yl)methyl)-1,2,3,4-tetrahydroisoquinoline-2-carbonyl)cyclohexane-1-carboxylic acid] | 27
7.9 | C[C@]1(C(=O)O)CCCC[C@H]1C(=O)N1CCc2c(Cl)ccc(OCc3noc4c3CCCC4)c2[C@H]1CN1CCCC1=O [Example 138, (1S,2R)-2-((S)-5-chloro-1-((2-oxopyrrolidin-1-yl)methyl)-8-((4,5,6,7-tetrahydrobenzo[d]isoxazol-3-yl)methoxy)-1,2,3,4-tetrahydroisoquinoline-2-carbonyl)-1-methylcyclohexane-1-carboxylic acid] | 0.8
12 | Cc1cc(C(=O)NCCOc2cccc3c2[C@@H](CN2C(=O)c4ccccc4C2=O)N(C(=O)[C@@H]2CCCC[C@@H]2C(=O)O)CC3)no1 [Example 1, (1S,2R)-2-((S)-1-((1,3-Dioxoisoindolin-2-yl)methyl)-8-(2-(5-methylisoxazole-3-carboxamido)ethoxy)-1,2,3,4-tetrahydroisoquinoline-2-carbonyl)cyclohexanecarboxylic acid] | 850
13 | C[C@H]1CCC(=O)N1C[C@@H]1c2c(OCc3nnn(C)c3C(F)F)ccc(Cl)c2CCN1C(=O)[C@@H]1CCCC[C@]1(C)C(=O)O [Example 195, (1S,2R)-2-((S)-5-chloro-8-((5-(difluoromethyl)-1-methyl-1H-1,2,3-triazol-4-yl)methoxy)-1-(((S)-2-methyl-5-oxopyrrolidin-1-yl)methyl)-1,2,3,4-tetrahydroisoquinoline-2-carbonyl)-1-methylcyclohexane-1-carboxylic acid] | 6.8
9.9 | O=C(O)[C@H]1CCCC[C@H]1C(=O)N1CCc2c(Cl)ccc(OCc3cncnc3)c2[C@H]1CN1CCCC1=O [Example 85] | 34
6.6 | Cc1c(COc2ccc(Cl)c3c2[C@@H](CN2CCCC2=O)N(C(=O)[C@@H]2CCCC[C@]2(C)C(=O)O)CC3)nnn1C [Example 107, (1S,2R)-2-((S)-5-Chloro-8-((1,5-dimethyl-1H-1,2,3-triazol-4-yl)methoxy)-1-((2-oxopyrrolidin-1-yl)methyl)-1,2,3,4-tetrahydroisoquinoline-2-carbonyl)-1-methylcyclohexane-1-carboxylic acid] | 0.35
8.4 | O=C(O)[C@H]1CCCC[C@H]1C(=O)N1CCc2c(Cl)ccc(OCc3nsc4ccccc34)c2[C@H]1CN1CCCC1=O [Example 68, (1S,2R)-2-((S)-8-(Benzo[d]isothiazol-3-ylmethoxy)-5-chloro-1-((2-oxopyrrolidin-1-yl)methyl)-1,2,3,4-tetrahydroisoquinoline-2-carbonyl)cyclohexane-1-carboxylic acid] | 32
8.2 | Cn1cnc2cc(COc3ccc(Cl)c4c3[C@@H](CN3CCCC3=O)N(C(=O)[C@@H]3CCCC[C@@H]3C(=O)O)CC4)cnc21 [Example 89, (1S,2R)-2-((S)-5-Chloro-8-((3-methyl-3H-imidazo[4,5-b]pyridin-6-yl)methoxy)-1-((2-oxopyrrolidin-1-yl)methyl)-1,2,3,4-tetrahydroisoquinoline-2-carbonyl) cyclohexane-1-carboxylic acid] | 5.1
11 | Cc1cnc(COc2ccc(Br)c3c2[C@@H](CN2CCCC2=O)N(C(=O)[C@@H]2CCCC[C@@H]2C(=O)O)CC3)s1 [Example 65, (1S,2R)-2-((S)-5-bromo-8-((5-methylthiazol-2-yl)methoxy)-1-((2-oxopyrrolidin-1-yl)methyl)-1,2,3,4-tetrahydroisoquinoline-2-carbonyl) cyclohexane-1-carboxylic acid] | 97
6.8 | Cn1cccc(COc2ccc(Cl)c3c2[C@@H](CN2CC4(CC4)CC2=O)N(C(=O)[C@@H]2CCCC[C@]2(C)C(=O)O)CC3)c1=O [Example 211, (1S,2R)-2-((S)-5-chloro-8-((1-methyl-2-oxo-1,2-dihydropyridin-3-yl)methoxy)-1-((6-oxo-5-azaspiro[2.4]heptan-5-yl)methyl)-1,2,3,4-tetrahydroisoquinoline-2-carbonyl)-1-methylcyclohexane-1-carboxylic acid] | 43
6.5 | Cn1nnc(COc2ccc(Cl)c3c2[C@@H](CN2CC4(CC4)CC2=O)N(C(=O)[C@@H]2C[C@H](O)CC[C@]2(C)C(=O)O)CC3)c1C(F)F [Example 225, (1S,2R,4R)-2-((S)-5-chloro-8-((5-(difluoromethyl)-1-methyl-1H-1,2,3-triazol-4-yl)methoxy)-1-((6-oxo-5-azaspiro[2.4]heptan-5-yl)methyl)-1,2,3,4-tetrahydroisoquinoline-2-carbonyl)-4-hydroxy-1-methylcyclohexane-1-carboxylic acid] | 110
